Results published in PubChem BioAssay (NCI).
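Step 1: Grow cells in 96-well plates. Step 2: Expose to compound for 48 hours at 5 concentrations. Step 3: Interpolate endpoints linearly; if unreached, use highest concentration. The concentration for 50% growth inhibition is given as GI50. TGI denotes the concentration required for complete inhibition of growth.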 Where a SMILES comes first, the peptide text is derived from it. The star is where a group is joined. Trt = c1ccc(C(c2ccccc2)(c2ccccc2)*)cc1; Cbz = O=C(OCc1ccccc1)*

How the values were obtained:
Experiment in all cases: DTP human tumour cell line panel, 48 h
CAKI-1 renal = tested on: CAKI-1 renal
CCRF-CEM leukemia = tested on: CCRF-CEM leukemia
HCT-15 colon = tested on: HCT-15 colon
HOP-62 NSCLC = tested on: HOP-62 NSCLC
HT29 colon = tested on: HT29 colon
MDA-MB-435 = tested on: MDA-MB-435
OVCAR-3 ovarian = tested on: OVCAR-3 ovarian
RXF 393 renal = tested on: RXF 393 renal
SN12C renal = tested on: SN12C renal
SNB-19 CNS = tested on: SNB-19 CNS

SMILES | GI50 (CAKI-1 renal) | TGI (CAKI-1 renal) | GI50 (CCRF-CEM leukemia) | TGI (CCRF-CEM leukemia) | GI50 (HCT-15 colon) | TGI (HCT-15 colon) | GI50 (HOP-62 NSCLC) | TGI (HOP-62 NSCLC) | GI50 (HT29 colon) | TGI (HT29 colon) | GI50 (MDA-MB-435) | TGI (MDA-MB-435) | GI50 (OVCAR-3 ovarian) | TGI (OVCAR-3 ovarian) | GI50 (RXF 393 renal) | TGI (RXF 393 renal) | GI50 (SN12C renal) | TGI (SN12C renal) | GI50 (SNB-19 CNS) | TGI (SNB-19 CNS)
COc1cc2oc(-c3cccc(C(=O)Nc4ccc(Cl)cc4)c3)cc(=O)c2c(OC)c1OC | 1.79 µM | 7.84 µM | 2.28 µM | > 100 µM | 1.61 µM | > 100 µM | 2.66 µM | 9.89 µM | 1.97 µM | 6.65 µM | 3.15 µM | > 100 µM | 3.6 µM | > 100 µM | 1.25 µM | 5.09 µM | 3.49 µM | > 100 µM | 6.35 µM | > 100 µM
CC1CC2C3CCC4=CC(=O)C=CC4(C)C3(F)C(O)CC2(C)C1(O)C(=O)COP(=O)(O)O (stereo not given) | > 500 µM | > 500 µM | > 500 µM | > 500 µM | > 500 µM | > 500 µM | > 500 µM | > 500 µM | > 500 µM | > 500 µM | > 500 µM | > 500 µM | > 500 µM | > 500 µM | > 500 µM | > 500 µM | > 500 µM | > 500 µM | > 500 µM | > 500 µM
Cc1ccccc1N=Nc1c(O)ccc2ccccc12 | – | > 100 µM | – | > 100 µM | – | > 100 µM | – | > 100 µM | – | > 100 µM | – | > 100 µM | – | > 100 µM | – | > 100 µM | – | > 100 µM | – | > 100 µM
C#Cc1cccc(Nc2ncnc3cc(NC(=O)CCl)ccc23)c1 | 1.78 µM | 6.06 µM | 0.626 µM | 2.7 µM | 0.743 µM | 3.42 µM | 3.22 µM | 6.77 µM | 1.06 µM | 5.74 µM | 1.27 µM | 5.17 µM | 1.37 µM | 5.42 µM | 4.03 µM | 7.78 µM | 1.29 µM | 4.81 µM | 2.96 µM | 6.03 µM
COc1ccc(-c2cc(-c3ccc(Nc4nc(Nc5ccccc5)nc(Nc5ccc(Cl)cc5)n4)cc3)nc(N)n2)cc1 | 5.4 µM | 23.3 µM | 6 µM | 29.5 µM | 13.5 µM | > 50 µM | 10.3 µM | 33.1 µM | 7.56 µM | 21.8 µM | 14.5 µM | > 50 µM | 11.3 µM | > 50 µM | 12.1 µM | 30.7 µM | 11.8 µM | 32.6 µM | 9.03 µM | 24.6 µM
Oc1ccc(Cl)cc1C(c1cc(Cl)ccc1O)C(Cl)(Cl)Cl | 1.97 µM | 6.06 µM | 3.2 µM | 8.02 µM | 1.94 µM | 5.07 µM | 1.7 µM | 3.64 µM | 2.05 µM | 4 µM | 1.95 µM | 4.21 µM | 1.92 µM | 4.23 µM | 1.95 µM | 4.16 µM | 1.67 µM | 3.28 µM | 3.24 µM | 10.8 µM
COc1cc(CNCCCCCCN2C(=O)c3cccc4cccc(c34)C2=O)ccc1O | 8.44 µM | 26.9 µM | 3.53 µM | 29.3 µM | 10.4 µM | 29.6 µM | 5.78 µM | 19.1 µM | 2.62 µM | 10.1 µM | 3.89 µM | 15.9 µM | 4.11 µM | 16.6 µM | 2 µM | 9.19 µM | 10.1 µM | 22 µM | 13.6 µM | 28.5 µM
CC(=O)Nc1ccc(C(=O)CCl)cc1 | 1.78 µM | 3.24 µM | 2.41 µM | 7.51 µM | 2.39 µM | 7.6 µM | 15 µM | 32.1 µM | 2.45 µM | 5.04 µM | 4.74 µM | 16.6 µM | 2.55 µM | 5.82 µM | 3.41 µM | 11.6 µM | 5.35 µM | 19.2 µM | 17.2 µM | 45.1 µM
NS(=O)(=O)c1ccc(Nc2cc(-c3ccc(O)c(F)c3)[nH]n2)cc1 | > 25 µM | > 25 µM | 13.5 µM | > 25 µM | > 25 µM | > 25 µM | > 25 µM | > 25 µM | > 25 µM | > 25 µM | > 23.5 µM | > 25 µM | 9.43 µM | > 25 µM | > 25 µM | > 25 µM | > 25 µM | > 25 µM | > 25 µM | > 25 µM
C/C(=N\O)c1ccc2ccc3ccccc3c2c1 | – | > 100 µM | – | > 100 µM | – | > 100 µM | – | > 100 µM | – | > 100 µM | – | 46.9 µM | – | 90.9 µM | – | > 100 µM | – | > 100 µM | – | > 100 µM
O=C(Nc1ccc(Oc2ccc(F)cc2)cc1)[C@@H]1C[C@@H](Cc2ccc(F)cc2)CN1C(=O)Cn1ccnn1 | 11.5 µM | 51.7 µM | 5.24 µM | > 100 µM | 5.04 µM | 23.1 µM | 12.3 µM | 31.5 µM | 4.2 µM | 15 µM | 7.16 µM | 23.7 µM | 8.12 µM | 26.7 µM | 2.85 µM | 11.6 µM | 5.73 µM | 21.8 µM | 9.45 µM | > 100 µM
COc1cc(-c2cc(/C=C/C(=O)c3ccc(F)c(F)c3)[nH]n2)cc(OC)c1OC | 2.98 µM | > 100 µM | 3.08 µM | 47.2 µM | 3.01 µM | > 100 µM | 4.39 µM | > 100 µM | 2.62 µM | 6.47 µM | 2.88 µM | 13.3 µM | 2.39 µM | 6.25 µM | 2.05 µM | 6.34 µM | 3.37 µM | 25.5 µM | 3.64 µM | > 100 µM
CN(C)c1ccc(/C=C\c2ccnc3ccccc23)cc1 | 10.2 µM | > 100 µM | 5.13 µM | > 100 µM | 4.42 µM | > 100 µM | 7.5 µM | > 67.9 µM | 2.49 µM | 12.4 µM | 1.47 µM | > 30.5 µM | 7.88 µM | > 60 µM | 3.2 µM | > 79.6 µM | 8.81 µM | > 74.1 µM | 10.6 µM | > 100 µM
Cc1cc(=O)oc2ccc(OC/C=C3\CCC(=O)O3)cc12 | 2.72 µM | 14.8 µM | 2.61 µM | 7.96 µM | 3.5 µM | 11.5 µM | 13.5 µM | 29.9 µM | 3.62 µM | 15.5 µM | 7.65 µM | 22.8 µM | 3.59 µM | 18.4 µM | 5.85 µM | 21.3 µM | 13.5 µM | 31.4 µM | 13 µM | 30.8 µM
c1cc(N[C@@H]2CCNC2)nc(-c2cnc3ccc(-c4cn[nH]c4)cn23)c1 | > 47.9 µM | > 100 µM | 3.26 µM | 14.4 µM | > 100 µM | > 100 µM | 6.23 µM | 29.6 µM | 12.1 µM | > 96.8 µM | 11.2 µM | 26.7 µM | 2.92 µM | 24.8 µM | 2.56 µM | 11.7 µM | 0.795 µM | 13.4 µM | 4.26 µM | 34.9 µM
O=C1/C(=C/c2ccc(Cl)c(Cl)c2)CN(C(=O)C(Cl)Cl)C/C1=C\c1ccc(Cl)c(Cl)c1 | 0.244 µM | 0.826 µM | 0.0372 µM | > 100 µM | 0.033 µM | 0.802 µM | 0.271 µM | 0.972 µM | 0.071 µM | 2.07 µM | 0.222 µM | 0.546 µM | 0.0571 µM | 0.237 µM | 0.164 µM | 0.337 µM | 0.139 µM | 0.461 µM | 0.11 µM | 0.306 µM
COC(=O)C(CO)NC(=O)C(CSC(c1ccccc1)(c1ccccc1)c1ccccc1)NC(=O)OCc1ccccc1 (stereo not given) (Cbz-Cys(Trt)-Ser-OMe; configuration not given here) | – | 39.4 µM | – | 7.63 µM | – | > 52.9 µM | – | 46.5 µM | – | 33.3 µM | – | 30.2 µM | – | 28.6 µM | – | 32.5 µM | – | 27.3 µM | – | 50.7 µM
COc1cc(/C=C2\C(=O)N(Cc3ccc(Cl)cc3)c3ccccc32)cc(OC)c1OC | 2.92 µM | 13.8 µM | 1.41 µM | 4.82 µM | 1.68 µM | 3.43 µM | 3.72 µM | 12.5 µM | 3.27 µM | > 30.5 µM | 2.32 µM | 7.03 µM | 1.57 µM | 3.31 µM | 2.35 µM | 4.95 µM | 2.59 µM | 8.99 µM | 4.78 µM | 18 µM
